Data: US5733904A, “Method for prevention and treatment of viral infectious diseases for viral suppression” (priority 1996, dated 1998)
“Also recorded” adds a separate entry of the source.

Assays:
parainfluenza virus = assay: Inhibitory action for plaque formation of parainfluenza virus; assay type: cell-based; conditions: mean of two, control 51.5
Description: Experiments were performed according to a method described in Antiviral Chemistry and Chemotherapy, 5 (6), 366-371, 1994 and Experimental Virology, Ed. by NIH Japan alumni assoc., Maruzen Publ. 1982, p. 65-78 or p. 331-340.
Vero cells cultured in the medium (Dulbecco's modified MEM added with 10% FBS) were detached by trypsin (Sigma Corp.). The detached cells were suspended by 2×10^5 cells/ml in the same medium, and placed in the wells of a 48 hole plate. The plate was incubated at 37° C. under 5% CO2 for about one day to complete a full-sheet of the cells in all wells. After incubation, cultured supernatant was removed. A solution (50 μl) containing the compound diluted with 4-fold stepwise dilution by virus culture medium (MM: Dulbecco's modified MEM added with 2% FBS), was added thereto.
A viral solution, 50 μl, in which the number of virus (parainfluenza virus or Herpes simplex virus type I) was adjusted to about 50 pfu (plaque forming unit)/50 μl by MM, was added to each well. MM 400 μl containing 1% methylcellulose was added in each well to provide a compound-added test group. A control group was prepared by adding the viral culture medium without adding the test compound.
The groups were incubated at 37° C. under 5% CO2 for three days to form plaques and the number of plaques in each well was counted.
The test compounds were FAS, and the compound of formula [I] where R^1 is hydroxy. The final concentration of the compound in the solution was set to 100, 25, 6.3 and 1.6 μg/ml, respectively. Each test group included 2 wells and a mean of the plaque numbers was obtained.

[1] = system: HIV-1 (LAV-1) persistently infected MOLT-4 cells with non-infected MOLT-4 cells; assay: Inhibitory activity of HIV syncytia formation: HIV-1 chronic-phase infection; assay type: cell-based
Description: b) Activity of the medicament on HIV-1 chronic-phase infection:
Cells obtained by culturing MOLT-4 (culture condition: 37° C., 5% CO2 /95% air, RPMI medium (GIBCO Corp.) containing 10% FBS) were adjusted to a preferable number of cells (1×10^5 cells/50 μl). HIV-1 (LAV-1) preparation, 50 μl was added to the cell suspension, 50 μl and subjected to a mixing culture (infectious condition of HIV-1 to MOLT-4: M.O.I.=1). The infected cell mixture was cultured by exchanging a fresh culture medium every 3 days at a volume rate of 2:5. The culture was continued for more than 1 month to prepare persistent infected cells. The concentration of the persistent infected cells was adjusted to a preferable number of cells (1×10^5 cells/50 μl ) (the persistent infected cell preparation).
Cell preparation without infection was prepared by culturing MOLT-4 (culture condition: 37° C., 5% CO2 /95% air, RPMI medium (GIBCO Corp.) containing 10% FBS) and adjusting the concentration to a preferable number of cells (1×10^5 cells/50 μl).
The persistent infected cell preparation, 50 μl, was placed in the wells of a 96 hole microplate and the non-infected cell preparation, 50 μl, was added therein and cultured for 48 hours. Numbers of the formed syncytia were counted microscopically.
Each compound solution tested was added, 100 μl, at the time of mixing the persistent infected cell preparation with the non-infected cell preparation, to provide the final concentrations shown in FIG. 2 (medicament added test group).
The no-medicament-added group (control group) was prepared by replacing the compound solution, 100 μl.

Acute toxicity in rats = assay: Acute toxicity in rats; design: species or system rat (Jcl: Wistar, 5 weeks); conditions: rat, in vivo
Description: Acute toxicity of the compounds of the present invention were conducted on rats and mice, and low toxicity was confirmed.

[2] = system: HIV-1 p24 gag protein, HIV-1 infected MOLT-4 cells; assay: Suppressive action of HIV production (p24 gag protein in culture supernatant, ELISA); assay type: cell-based; conditions: FIG. 4; 5 days; hydrochloride
Description: Suppressive action of HIV production (extracellular release from cells). Cells obtained by culturing MOLT-4 (culture condition: 37° C., 5% CO2 /95% air. RPMI medium (GIBCO Corp.) containing 10% FBS) were adjusted to a preferable number of cells (1×10^5 cells/50 μl). The cell suspension, 50 μl, (infection with MOLT-4 and HIV-1: M.O.I.=1.0) were put in a 96 hole microplate and cultured for 1 hour to infect the cells. A solution of the compounds shown below, 100 μl, was added in each well and cultured for 5 days. The cultured solution was transferred into a plastic tube (Eppendorf Corp.) and centrifuged. The amount of p24 gag protein in the cultured supernatant medium wa assayed by using an Abbott kit (ELISA: Dinabot Co.). FAS, H-7 and KN-62 were used as the compound, and a solution without the compound was used as a control.

[3] = system: HIV-1 (LAV-1 strain) in MOLT-4 cells; assay: Inhibitory activity of HIV syncytia formation: HIV-1 acute-phase infection; assay type: cell-based; conditions: in concentrations of at least 1.0 μM; 48 hours
Description: a) Activity of the medicament on HIV-1 acute-phase infection:
Cells obtained by culturing MOLT-4 (American Type Culture Collection ATCC CRL-1582) in RPMI medium (GIBCO Corp.) containing 10% FBS (fetal bovine serum: GIBCO Corp.) (culture condition: 37° C., 5% CO2 /95% air) were prepared to aliquot number of cells (1×10^5 cells/50 μl). The cell suspension, 50 μl and the liquid preparation, 50 μl containing HIV-1 (LAV-1 strain, Wain-Hobson et al., Cell 40: 9-17, 1985) in RPMI medium with 10% FBS were put into each well of a 96 hole microplate and cultured for 48 hours (Infectious condition of MOLT-4 and HIV-1: M.O.I.=4.0).
Each compound was dissolved in RPMI medium containing 10% FBS at the final concentration as shown in FIG. 1 to prepare the medicament solution. The medicament solution, 100 μl was added to the mixture of MOLT-4 cell preparation and HIV-1 preparation at the time of mixing with MOLT-4 and HIV-1 to prepare the final volume of the liquid, 200 μl. The number of formed syncytia were microscopically counted.
Tested compounds were: FAS (fasudil hydrochloride, Chem. Pharm. Bull., 40 (3), 770-773, (1992)), C kinase inhibitor H-7 (1-5-isoquinolinylsulfonyl)-2-methyl-piperazine, Sigma Corp.), and calmodulin kinase II inhibitor KN-62 (1-(N,O-bis-[5-isoquinolinylsulfonyl]-N-methyl-L-tyrosyl)-4-phenyl-piperazine, Sigma Corp., Neuroscience Lett., 129, 47 (1991)) .
The control group without the compound was prepared by replacing the medicament solution, 100 μl.
Syncytium formation activity was calculated by comparing the syncytia formation in the test group to that of the control group in the following equation.
Syncytium formation activity=number of syncytia formed in the medicament-added group/number of syncytia formed in the no-medicament-added group.

Cl.O=S(=O)(c1cccc2cnccc12)N1CCCNCC1 [FAS, hexahydro-1-(5-isoquinoline-sulfonyl)-1H-1,4-diazepine hydrochloride]
Plaque No. (parainfluenza virus; 6.3 μg/ml): 50.5 | Plaque No. (parainfluenza virus; 25 μg/ml): 36 | Plaque No. (parainfluenza virus; 100 μg/ml): 3.5 | viral transmission from persistent infected cells to non-infected cells [1]: suppressed | inhibitory activity for syncytium formation ([1]; FIG. 2, 48 hours): extremely high suppressive action on syncytium formation | minimal effective concentration ([1]; Human immunodeficiency virus 1, MOLT-4, 48 hours, persistent infected cells mixed with non-infected cells, read-out: concentration showing inhibitory activity for syncytium formation): ≥ 3.75 µM | LD50 (Acute toxicity in rats; iv, i. v., female): 63.9 mg/kg | LD50 (Acute toxicity in rats; iv, i. v., male): 59.9 mg/kg | LD50 (Acute toxicity in rats; po, p. o., female): 348 mg/kg | LD50 (Acute toxicity in rats; po, p. o., male): 335 mg/kg | LD50 (Acute toxicity in rats; sc, s. c., female): 128 mg/kg | LD50 (Acute toxicity in rats; sc, s. c., male): 123 mg/kg | p24 gag protein in the cultured supernatant medium / HIV-1 generation [2]: decreased p24 gag protein in the cultured supernatant medium and suppressed HIV-1 generation; also recorded: apparently stronger than that of H-7 (-.increment.-) and KN-62 (-.quadrature.-) | inhibition of syncytia formation [3]: 90%
